In brackets after ≈: the same amount, converted by molar mass. Several values for one entry are separate records, joined by “and”; a condition that tells them apart may be missing. Equal entries are not always repeated.
Key:
[1] = system: secreted phospholipase B (PLB activity); assay: Radiometric assay, secreted PLB activity; type: biochemical, Cryptococcus neoformans H99; details: for PLB, percentage inhibition of activity: Secretory Cryptococcal H99 Phospholipase
How it was run: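 Secreted enzyme was taken from cell-free supernatant of Cryptococcus isolate H99 cells incubated 24 h at 37° C. Reactions at 37° C, pH 4.0 imidazole acetate, used 800 μM DPPC with [14C]-dipalmitoyl PC and 1 μg protein for 22 min. PLB was measured as radiolabelled PC loss by TLC, with inhibition expressed versus inhibitor-free control; compounds were tested at 25 and 250 μM, then 2.5 and 0.25 μM.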

[2] = system: Cryptococcus neoformans ATCC 90112; assay: Antifungal susceptibility testing, microdilution MIC; type: cell-based; details: Cryptococcus neoformans, ATCC90112
How it was run: (§1)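 Standard microdilution method, run in duplicate, using serial dilutions of cationic compounds.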

[3] = system: Candida albicans ATCC 10231; assay: as above; type: cell-based; details: Candida albicans, ATCC10231
How it was run: as §1

[4] = system: secreted phospholipase B (LPL/LPTA activities); assay: Radiometric assay, secreted LPL and LPTA activities (Lyso assay); type: biochemical, Cryptococcus neoformans H99
Procedure: Fungal isolates and media. […] Isolate H99 was kindly supplied by Dr. Gary Cox (Duke University Medical Center, Durham, N.C., USA), and subcultured onto Sabouraud dextrose agar (SDA) at 30° C.
Preparation of supernatants containing secreted phospholipase activities. Isolate H99 was grown to confluence on SDA in 16 cm diameter Petri dishes for 72 h at 30° C. in air. Cells scraped from 10-20 dishes were washed sequentially with isotonic saline and imidazole buffer (10 mM imidazole, 2 mM CaCl2, 2 mM Mg Cl2, 56 mM D-Glucose, made up in isotonic saline, pH 5.5), resuspended in a volume of this buffer of about 10% of the cell volume, and incubated for 24 h at 37° C. The cell-free supernatant was separated by centrifugation as previously described and stored at −70° C.
(§2) Secreted LPL and LPTA activities were measured simultaneously in a reaction mixture containing 1-[^14C]palmitoyl lyso-PC (25,000 dpm) and carrier lyso-PC (final concentration 200 μM) in assay buffer. The reaction time was […] with 1 μg of total protein and LPL activity was measured by the rate of loss of 1-[^14C]palmitoyl lyso-PC with release of radiolabelled fatty acids. LPTA activity was estimated from the rate of formation of radiolabelled PC.
All reactions were terminated by adding 0.5 mL of chloroform:methanol (2:1 v/v). The reaction products were extracted by the method as disclosed in Bligh, E. C. and W. J. Dyer. 1959 ‘A rapid method of total lipid extraction and purification.’ Can. J. Biochem. Physiol. 37:911-917, separated by TLC and quantified as previously described. In the case of PLC activity, the TLC plates were developed in petroleum ether (BP 60-80° C.): diethyl ether: acetic acid (90:15:1, v/v/v) instead of chloroform:methanol:water (65:25:4, v/v/v).
Preparation of inhibitors and use in assays. The following compounds were tested (for structures, see FIG. 2): compound 1, 1,12-bis(tributylphosphonium)dodecane dibromide (Fluka AG, Buchs, Switzerland); compound 2, 1,10-bis(tributylammonium)-decane dibromide; compound 3, 1,12-bis(tributylammonium)do-decane dibromide (both synthesised in-house); compound 4, 1,10-bis(trimethylammonium)decane dibromide [“decamethonium”] (Sigma, St. Louis Mo., USA). All compounds were prepared as stock solutions of 700 μM in assay buffer containing 5 mM EDTA, which was then diluted serially with buffer to obtain solutions of 70, 7, 0.7 and 0.07 μM. In each assay, 45 μL of these solutions was used, and the final volume of 125 μL was made up of substrate, enzyme and buffer. The radiometric assay was carried out as above. Inhibition was calculated as the percent of substrates (DPPC or Lyso-PC) remaining in the case of PLB and LPL activities, or of DPPC produced, in the case of the LPTA activity. The amounts converted, or produced, in the inhibitor-free control were normalised to 100%, and the inhibition calculated against it. All assays were done in triplicate.
Under these conditions only PLB, LPL and LPTA activities (both secreted and cell-associated) were measured. Initially, compounds deemed to be potential inhibitors were assayed at 25 and 250 μM. Those showing some inhibition were then also assayed at 2.5 and 0.25 μM.

[5] = system: Cryptococcus neoformans ATCC 90112; assay: In vitro antifungal activity, yeasts, NCCLS M27-A; type: cell-based; details: Cryptococcus neoformans, ATCC90112; Table 9
Source text: (§3) The assay used for yeasts (Candida; Cryptococcus) is that of the National Committee for Clinical Laboratory Standards. 1997. Reference Method for Broth Dilution Antifungal Susceptibility Testing of Yeasts: Approved Standard. NCCLS document M27-A.Villanova, Pa., USA as published in Ghannoum, M. A., A. S. Ibrahim, Y. Fu, M. C. Shafiq, J. E Edwards, Jr. and R. S. Criddle. 1992. Susceptibility testing of Cryptococcus neoformans: A microdilution technique. J. Clin. Microbiol. 30:2881-2886.

[6] = system: Candida albicans ATCC 10231; assay: In vitro antifungal activity, yeasts, NCCLS M27-A; type: cell-based; details: Candida albicans, ATCC10231; Table 9
Source text: as §3

[7] = system: VRE (Vancomycin resistant Enterococcus); assay: In vitro antibacterial activity, NCCLS M7-A6; type: cell-based
Procedure: (§4) Two bis-cationic compounds were tested for antibacterial activity. The assay used was that published by the National Committee for Clinical Laboratory Standards. 2003. Methods for Dilution Antimicrobial Susceptibility Tests for Bacteria That Grow Aerobically: Approved Standard—Sixth Edition. NCCLS document M7-A6. Villanova, Pa., USA.

[8] = system: Pseudomonas ariginosa 122; assay: In vitro antibacterial activity, NCCLS M7-A6; type: cell-based
Procedure: as §4

[9] = system: MRSA (methicillin resistant S. aureus); assay: In vitro antibacterial activity, NCCLS M7-A6; type: cell-based; details: Staphylococcus aureus, read-out: MIC MRSA (methicillin resistant S. aureus)
Procedure: as §4

[10] = system: Aspergillus fumigatus ATCC 204 305; assay: In vitro antifungal activity, filamentous fungi, NCCLS M38-A; type: cell-based; details: Aspergillus fumigatus, ATCC204
Source text: (§5) The assay used for filamentous fungi (Aspergillus; Scedosporium; Fusarium) was that published by the National Committee for Clinical Laboratory Standards. 2002. Reference Method for Broth Dilution Antifungal Susceptibility Testing of Filamentous Fungi: Approved Standard. NCCLS document M38-A.Villanova, Pa., USA.

[11] = system: Scedosporium apiospermum 1-003-056; assay: as above; type: cell-based; details: Scedosporium apiospermum, 1003056
Source text: as §5

[12] = system: Aspergillus flavus ATCC 204 304; assay: as above; type: cell-based; details: Aspergillus flavus, ATCC204
Source text: as §5

[13] = system: Scedosporium prolificans 1-003-040; assay: as above; type: cell-based; details: Lomentospora prolificans, 1003040
Source text: as §5

[14] = system: Aspergillus terreus ATCC 03-232-378; assay: as above; type: cell-based; details: Aspergillus terreus, ATCC03
Source text: as §5

[15] = system: Fusarium solani 04-132-4207; assay: as above; type: cell-based; details: Fusarium solani, 041324207
Source text: as §5

[16] = system: C. neoformans strain H99 phospholipases; assay: Inhibition of C. neoformans strain H99 phospholipases (all enzymes and activities); type: biochemical, Cryptococcus neoformans H99
Procedure: Radiometric assay method for phospholipases. Enzyme activities were measured as described previously in a final volume of 125 μL at 37° C. For the determination of secreted PLB activity, carrier dipalmitoyl phosphatidylcholine (DPPC, final concentration 800 μM) and 1,2-di[1-^14C] palmitoyl phosphatidylcholine (20,000 dpm) were dried under nitrogen and suspended in 125 mM imidazole acetate buffer (assay buffer, pH 4.0) by sonication using a Branson 450 sonifier. The reaction time was 22 min, using 1 μg total protein and PLB activity was determined by the rate of decrease of the radiolabelled PC substrate, with appearance of the label in free fatty acid. […] These activities were measured by the appearance of radiolabel from PC in Lyso PC, diacylglycerol and phosphatidic acid, respectively.
as §2, with “LPTA activity was estimated from the rate of formation of radiolabelled PC.” left out
All reactions were terminated by adding 0.5 mL of chloroform:methanol (2:1 v/v). […] 37:911-917, separated by TLC and quantified as previously described. […]

[17] = biological target: T1, Porcine pancreatic phospholipase A2 (Sus scrofa, UniProt P00592); assay: Pancreatic phospholipase assay; type: biochemical; details: read-out: ppPLA2, percentage inhibition of activity
T1 construct: purchased Sigma, St. Louis MO, USA
T1 sequence (P00592 23-146): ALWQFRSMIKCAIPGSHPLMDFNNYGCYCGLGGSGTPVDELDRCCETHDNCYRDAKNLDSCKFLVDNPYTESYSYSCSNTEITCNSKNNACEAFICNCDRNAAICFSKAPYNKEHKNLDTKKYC
Procedure: Pancreatic phospholipase assay. Porcine pancreatic phospholipase A2 suspension in 3.2M ammonium sulfate (2.9 mg protein/mL, Sigma St.Louis Mo., USA) was used. One part of well mixed enzyme suspension was added to 4 parts of buffer (10 mM Tris/HCl, pH 8.2; 10 mM CaCl2. Activity and inhibition by test compounds was then measured by the radiometric method described in Example 2 for fungal PLB activity. However, 25 μL enzyme solution was used, and the reaction time was 1 hour. These conditions result in ˜60% substrate conversion in the inhibitor-free control.

[18] = system: Staphylococcus aureus 25923; assay: In vitro antibacterial activity, NCCLS M7-A6; type: cell-based
Procedure: as §4

[19] = system: Escherichia coli 25922; assay: In vitro antibacterial activity, NCCLS M7-A6; type: cell-based
Procedure: as §4

[20] = system: Streptococcus pneumonia 49619; assay: In vitro antibacterial activity, NCCLS M7-A6; type: cell-based; details: Streptococcus pneumoniae
Procedure: as §4

[21] = Table 7, read-out: MIC (μM) Crypto. (ATCC 90112)
[22] = Table 7, read-out: MIC (μM) C. alb. (10231)

In the case of CCCC[N+](CCCC)(CCCC)CCCCCCCCCCCCCCCC[N+](CCCC)(CCCC)CCCC [1,16-bis-(tributylammonium)hexadecane], the “PLB assay (% inhibition)” value ([1]; 25 μM) is reported as 48%, the “PLB assay (% inhibition)” value ([1]; 250 μM) is reported as 62% and the MIC [2, 21] is reported as 2.2 µM. The MIC [3, 22] was 5.5 µM, the “Lyso assay (% inhibition) LPL” value ([4]; 25 μM) was 5% and the “Lyso assay (% inhibition) LPTA” value ([4]; 25 μM) was 15%. For the same compound, the “Lyso assay (% inhibition) LPL” value ([4]; 250 μM) was 10%, the “Lyso assay (% inhibition) LPTA” value ([4]; 250 μM) was 6% and the MIC [5] was 3.6 µg/mL and 5.5 µM. The MIC [6] was 7.2 µg/mL and 11 µM, the MIC [7] was 3.6 µg/mL and 5.5 µM and the MIC [8] was 106 µg/mL and 160 µM. The MIC [9] was 5 µg/mL and 11 µM, the MIC [10] was 7.3 µg/mL and 11 µM and the MIC [11] was 3.6 µg/mL and 5.5 µM. The MIC [12] was 14.6 µg/mL and 22 µM, the MIC [13] was 7.3 µg/mL and 11 µM and the MIC [14] was 7.3 µg/mL and 11 µM. The MIC [15] was 14.6 µg/mL and 22 µM.

C[N+](C)(C)CCCCCCCCCC[N+](C)(C)C [Compound 4, 1,10-bis(trimethylammonium)decane dibromide, reference compound] was tested, and the “PLB assay (% inhibition)” value ([1]; 0.25 μM) was 250 μM = 0% 25 μM = 0% 2.5 μM = 0% 0.25 μM = 0%, the “PLB assay (% inhibition)” value ([1]; 2.5 μM) was 250 μM = 0% 25 μM = 0% 2.5 μM = 0% 0.25 μM = 0% and the “PLB, percentage inhibition of activity” value ([1]; 2.5 μM) was 0%. For the same compound, the “PLB assay (% inhibition)” value ([1]; 25 μM) was 250 μM = 0% 25 μM = 0% 2.5 μM = 0% 0.25 μM = 0%, the “PLB, percentage inhibition of activity” value ([1]; 25 μM) was 0% and the “PLB assay (% inhibition)” value ([1]; 250 μM) was 250 μM = 0% 25 μM = 0% 2.5 μM = 0% 0.25 μM = 0%. The “PLB, percentage inhibition of activity” value ([1]; 250 μM) was 0%, the “enzyme (phospholipase) inhibition, in words” value [16] was “neither enzyme inhibition” and the MIC ([2]; Table 6, no visible growth after 72 h at 35° C., read-out: MIC C. neof. ATCC 90112) was 88 µM. The MIC [2, 21] was no less than 350 µM, the MIC ([3]; Table 6, no visible growth after 48 h at 35° C., read-out: MIC C. albicans ATCC 10231) was greater than 350 µM and the MIC [3, 22] was no less than 350 µM. The “Lyso assay (% inhibition) LPL” value ([4]; 0.25 μM) was 250 μM = 0% 25 μM = 0% 2.5 μM = 0% 0.25 μM = 0%, the “Lyso assay (% inhibition) LPTA” value ([4]; 0.25 μM) was 250 μM = 0% 25 μM = 0% 2.5 μM = 0% 0.25 μM = 0% and the “Lyso assay (% inhibition) LPL” value ([4]; 2.5 μM) was 250 μM = 0% 25 μM = 0% 2.5 μM = 0% 0.25 μM = 0%. For the same compound, the “Lyso assay (% inhibition) LPTA” value ([4]; 2.5 μM) was 250 μM = 0% 25 μM = 0% 2.5 μM = 0% 0.25 μM = 0%, the “Lyso assay (% inhibition) LPL” value ([4]; 25 μM) was 250 μM = 0% 25 μM = 0% 2.5 μM = 0% 0.25 μM = 0% and the “Lyso assay (% inhibition) LPTA” value ([4]; 25 μM) was 250 μM = 0% 25 μM = 0% 2.5 μM = 0% 0.25 μM = 0%. For the same compound, the “Lyso assay (% inhibition) LPL” value ([4]; 250 μM) was 250 μM = 0% 25 μM = 0% 2.5 μM = 0% 0.25 μM = 0%, the “Lyso assay (% inhibition) LPTA” value ([4]; 250 μM) was 250 μM = 0% 25 μM = 0% 2.5 μM = 0% 0.25 μM = 0% and the inhibition at 2.5 µM [17] was 0%. It also gave an inhibition at 25 µM [17] of 0% and an inhibition at 250 µM [17] of 0%.

CC1(C)S[C@@H]2[C@H](NC(=O)[C@H](N)c3ccc(O)cc3)C(=O)N2[C@H]1C(=O)O [amoxicillin, reference compound] showed an MIC [18] of 0.25 to 0.5 µg/mL (≈ 0.684 to 1.37 µM), an MIC [19] of 8 to 16 µg/mL (≈ 21.9 to 43.8 µM) and an MIC [20] of 0.06 to 0.12 µg/mL (≈ 0.164 to 0.328 µM).

— patent US7947854B2, “Bis-cationic compounds and use thereof” (The University of Sydney, priority 2003, dated 2011)
